Measured values published in EP2970215B1, “PYRROLIDINE DERIVATIVES, PHARMACEUTICAL COMPOSITIONS CONTAINING THEM, AND THEIR USE IN THERAPY” (AbbVie Deutschland GmbH & Co. KG, priority 2013, dated 2014).

The compounds below were run against T1, human GlyT1c transporter (Homo sapiens, UniProt P48067) (assay: Radioligand binding assay using recombinant CHO cell membranes expressing human GlyT1). Conditions: radioligand binding to human GlyT1c transporter-expressing membranes.
T1 construct: expressed in transfected cells; host or cells: CHO cells (recombinant; line hGlyT1c_5_CHO is named for the uptake assay)
T1 sequence (P48067 1-706): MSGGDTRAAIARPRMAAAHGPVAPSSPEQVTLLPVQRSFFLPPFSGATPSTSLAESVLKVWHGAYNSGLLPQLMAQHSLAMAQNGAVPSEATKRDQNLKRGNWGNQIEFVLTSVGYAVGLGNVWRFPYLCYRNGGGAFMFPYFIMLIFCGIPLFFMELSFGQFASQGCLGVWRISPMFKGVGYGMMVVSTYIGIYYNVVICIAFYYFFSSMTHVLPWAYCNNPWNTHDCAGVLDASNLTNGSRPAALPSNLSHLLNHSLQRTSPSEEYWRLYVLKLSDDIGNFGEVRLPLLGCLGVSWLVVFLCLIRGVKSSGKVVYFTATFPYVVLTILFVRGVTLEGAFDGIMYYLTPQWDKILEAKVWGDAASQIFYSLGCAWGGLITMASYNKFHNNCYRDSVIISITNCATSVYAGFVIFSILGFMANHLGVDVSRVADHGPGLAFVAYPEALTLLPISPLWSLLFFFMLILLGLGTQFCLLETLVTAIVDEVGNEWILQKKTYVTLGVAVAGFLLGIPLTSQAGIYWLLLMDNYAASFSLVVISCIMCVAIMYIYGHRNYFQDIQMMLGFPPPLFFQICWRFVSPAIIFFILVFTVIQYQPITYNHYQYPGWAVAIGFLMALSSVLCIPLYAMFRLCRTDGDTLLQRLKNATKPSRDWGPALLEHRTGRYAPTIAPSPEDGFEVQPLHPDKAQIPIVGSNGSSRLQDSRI
Text: 2. Radioligand binding assays using recombinant CHO cell membranes expressing human GlyT1: […]

Compound | Ki [µM]
Cn1cnc(S(=O)(=O)N2C[C@@H](Nc3cccc(Cl)c3)[C@H](c3ccc(F)cc3)C2)c1 (relative stereo) [Example 94, trans-N-(3-chlorophenyl)-4-(4-fluorophenyl)-1-[(1-methyl-1H-imidazol-4-yl)sulfonyl]pyrrolidin-3-amine] | ≤ 0.01
Cn1cnc(S(=O)(=O)N2C[C@@H](Nc3ccc(Cl)cc3)[C@H](c3ccc(F)cc3)C2)c1 (relative stereo) [Example 95, trans-N-(4-chlorophenyl)-4-(4-fluorophenyl)-1-[(1-methyl-1H-imidazol-4-yl)sulfonyl]pyrrolidin-3 - amine] | ≤ 1
Cc1cc(C#N)cc(N[C@@H]2CN(S(=O)(=O)c3cn(C)cn3)C[C@H]2c2ccccc2)c1 (relative stereo) [Example 101, 3-methyl-5-({trans-1-[(1-methyl-1H-imidazol-4-yl)sulfonyl]-4-phenylpyrrolidin-3-yl}amino)benzonitrile] | ≤ 1
Cn1cnc(S(=O)(=O)N2C[C@@H](NC(=O)c3cccc(C(F)(F)F)c3Cl)[C@H](c3ccccc3Cl)C2)c1 (relative stereo) [Example 115, 2-chloro-N-{trans-4-(2-chlorophenyl)-1-[(1-methyl-1H-imidazol-4-yl)sulfonyl]pyrrolidin-3-yl}-3-(trifluoromethyl)benzamide] | ≤ 0.1
CCCS(=O)(=O)N1C[C@@H](NC(=O)c2ccc(C(F)(F)F)cc2)[C@H](c2ccccc2)C1 (relative stereo) [Example 125, N-[trans-4-phenyl-1-(propylsulfonyl)pyrrolidin-3-yl]-4-(trifluoromethyl)benzamide] | > 10
CCCS(=O)(=O)N1C[C@@H](NC(=O)c2cc(Cl)cc(Cl)c2)[C@H](c2ccccc2)C1 (relative stereo) [Example 126, 3,5-dichloro-N-[trans-4-phenyl-1-(propylsulfonyl)pyrrolidin-3-yl]benzamide] | ≤ 10
O=C(N[C@@H]1CN(S(=O)(=O)CC2CC2)C[C@H]1c1ccccc1)c1cccc(C(F)(F)F)c1Cl (relative stereo) [Example 130, 2-chloro-N-{trans-1-[(cyclopropylmethyl)sulfonyl]-4-phenylpyrrolidin-3-yl}-3-(trifluoromethyl)benzamide] | > 10
CCCS(=O)(=O)N1C[C@@H](Nc2cccc(C#N)c2)[C@H](c2ccccc2)C1 (relative stereo) [Example 132, 3-{[trans-4-phenyl-1-(propylsulfonyl)pyrrolidin-3-yl]amino}benzonitrile] | ≤ 10
COc1ccc(S(=O)(=O)N2C[C@@H](NC(=O)c3cc(Cl)cc(Cl)c3)[C@H](c3ccccc3)C2)cc1 (relative stereo) [Example 135] | > 10
COc1ccc(S(=O)(=O)N2C[C@@H](Nc3cccc(C#N)c3)[C@H](c3ccccc3)C2)cc1 (relative stereo) [Example 137, 3-({trans-1-[(4-methoxyphenyl)sulfonyl]-4-phenylpyrrolidin-3-yl}amino)benzonitrile] | ≤ 10
O=C(N[C@@H]1CN(S(=O)(=O)c2ccc(C(F)(F)F)cc2)C[C@H]1c1ccccc1)c1cccc(C(F)(F)F)c1Cl (relative stereo) [Example 143, 2-chloro-N-[trans-4-phenyl-1-{[4-(trifluoromethyl)phenyl]sulfonyl}pyrrolidin-3-yl]-3-(trifluoromethyl)benzamide] | ≤ 10
N#Cc1cccc(N[C@@H]2CN(S(=O)(=O)c3ccc(C(F)(F)F)cc3)C[C@H]2c2ccccc2)c1 (relative stereo) [Example 144, 3-{[trans-4-phenyl-1-{[4-(trifluoromethyl)phenyl]sulfonyl}pyrrolidin-3-yl]amino}benzonitrile] | > 10
Cn1cnc(S(=O)(=O)N2C[C@@H](NCc3ccccc3)[C@H](c3ccc(F)cc3)C2)c1 (relative stereo) [Example 148, trans-N-benzyl-4-(4-fluorophenyl)-1-[(1-methyl-1H-imidazol-4-yl)sulfonyl]pyrrolidin-3-amine] | ≤ 10
Cn1cnc(S(=O)(=O)N2C[C@@H](NCc3cccc(C(F)(F)F)c3Cl)[C@H](c3ccc(F)cc3)C2)c1 (relative stereo) [Example 149, trans-N-[2-chloro-3-(trifluoromethyl)benzyl]-4-(4-fluorophenyl)-1-[(1-methyl-1H-imidazol-4-yl)sulfonyl]pyrrolidin-3-amine] | ≤ 0.1
Cn1cnc(S(=O)(=O)N2C[C@@H](NCc3ccc(C(F)(F)F)c(Cl)c3)[C@H](c3ccc(F)cc3)C2)c1 (relative stereo) [Example 151, trans-N-[3-chloro-4-(trifluoromethyl)benzyl]-4-(4-fluorophenyl)-1-[(1-methyl-1H-imidazol-4-yl)sulfonyl]pyrrolidin-3-amine] | ≤ 0.1
Cn1cnc(S(=O)(=O)N2C[C@@H](NCc3cccc(C#N)c3)[C@H](c3ccc(F)cc3)C2)c1 (relative stereo) [Example 152, 3-[({trans-4-(4-fluorophenyl)-1-[(1-methyl-1H-imidazol-4-yl)sulfonyl]pyrrolidin-3-yl}amino)methyl]benzonitrile] | ≤ 1

The remaining lines, values ahead:

Ki [µM] | Compound
≤ 10 | COc1ccc(N[C@@H]2CN(S(=O)(=O)c3cn(C)cn3)C[C@H]2c2ccccc2)cc1C#N (relative stereo) [Example 100, 2-methoxy-5-({trans-1-[(1-methyl-1H-imidazol-4-yl)sulfonyl]-4-phenylpyrrolidin-3-yl}amino)benzonitrile]
≤ 10 | CCS(=O)(=O)N1C[C@@H](NC(=O)c2cc(Cl)cc(Cl)c2)[C@H](c2ccccc2)C1 (relative stereo) [Example 123, 3,5-dichloro-N-[trans-1-(ethylsulfonyl)-4-phenylpyrrolidin-3-yl]benzamide]
≤ 10 | CCS(=O)(=O)N1C[C@@H](NC(=O)c2cccc(C(F)(F)F)c2Cl)[C@H](c2ccccc2)C1 (relative stereo) [Example 124, 2-chloro-N-[trans-1-(ethylsulfonyl)-4-phenylpyrrolidin-3-yl]-3-(trifluoromethyl)benzamide]
≤ 10 | CCCS(=O)(=O)N1C[C@@H](NC(=O)c2cccc(C(F)(F)F)c2Cl)[C@H](c2ccccc2)C1 (relative stereo) [Example 127, 2-chloro-N-[trans-4-phenyl-1-(propylsulfonyl)pyrrolidin-3-yl]-3-(trifluoromethyl)benzamide]
≤ 10 | O=C(N[C@@H]1CN(S(=O)(=O)CC2CC2)C[C@H]1c1ccccc1)c1ccc(C(F)(F)F)cc1 (relative stereo) [Example 128, N-{trans-1-[(cyclopropylmethyl)sulfonyl]-4-phenylpyrrolidin-3-yl}-4-(trifluoromethyl)benzamide]
> 10 | O=C(N[C@@H]1CN(S(=O)(=O)CC2CC2)C[C@H]1c1ccccc1)c1cc(Cl)cc(Cl)c1 (relative stereo) [Example 129, 3,5-dichloro-N-{trans-1-[(cyclopropylmethyl)sulfonyl]-4-phenylpyrrolidin-3-yl}benzamide]
> 10 | CCS(=O)(=O)N1C[C@@H](Nc2cccc(C#N)c2)[C@H](c2ccccc2)C1 (relative stereo) [Example 131, 3-{[trans-1-(ethylsulfonyl)-4-phenylpyrrolidin-3-yl]amino}benzonitrile]
≤ 10 | N#Cc1cccc(N[C@@H]2CN(S(=O)(=O)CC3CC3)C[C@H]2c2ccccc2)c1 (relative stereo) [Example 133, 3-({trans-1-[(cyclopropylmethyl)sulfonyl]-4-phenylpyrrolidin-3-yl}amino)benzonitrile]
≤ 10 | COc1ccc(S(=O)(=O)N2C[C@@H](NC(=O)c3ccc(C(F)(F)F)cc3)[C@H](c3ccccc3)C2)cc1 (relative stereo) [Example 134, N-{trans-1-[(4-methoxyphenyl)sulfonyl]-4-phenylpyrrolidin-3-yl}-4-(trifluoromethyl)benzamide]
≤ 10 | COc1ccc(S(=O)(=O)N2C[C@@H](NC(=O)c3cccc(C(F)(F)F)c3Cl)[C@H](c3ccccc3)C2)cc1 (relative stereo) [Example 136, 2-chloro-N-{trans-1-[(4-methoxyphenyl)sulfonyl]-4-phenylpyrrolidin-3-yl}-3-(trifluoromethyl)benzamide]
≤ 10 | O=C(N[C@@H]1CN(S(=O)(=O)c2ccc(C(F)(F)F)cc2)C[C@H]1c1ccccc1)c1cc(Cl)cc(Cl)c1 (relative stereo) [Example 142, 3,5-dichloro-N-[trans-4-phenyl-1-{[4-(trifluoromethyl)phenyl]sulfonyl}pyrrolidin-3-yl]benzamide]
≤ 0.001 | Cn1cnc(S(=O)(=O)N2C[C@@H](NCc3ccc(C(F)(F)F)cc3Cl)[C@H](c3ccc(F)cc3)C2)c1 (relative stereo) [Example 150, trans-N-[2-chloro-4-(trifluoromethyl)benzyl]-4-(4-fluorophenyl)-1-[(1-methyl-1H-imidazol-4-yl)sulfonyl]pyrrolidin-3-amine]
≤ 1 | Cc1ccccc1CN[C@@H]1CN(S(=O)(=O)c2cn(C)cn2)C[C@H]1c1ccc(F)cc1 (relative stereo) [Example 153, trans-4-(4-fluorophenyl)-N-(2-methylbenzyl)-1-[(1-methyl-1H-imidazol-4-yl)sulfonyl]pyrrolidin-3-amine]
